Consider one molecule from patent US10016383B2, “Inhibitors of metallo-β-lactamase-enzymes” (McMaster University, priority 2013, dated 2018).

The structures appear in SMILES notation. Entries after “also recorded” stand apart in the source; their conditions may differ.

One series has as its target T1, CTX-M-15 (Escherichia coli, UniProt Q9EXV5).
T1 construct: All β-lactamase overexpression constructs were generated without the leader peptide in a pET-28b plasmid containing a N-terminal His Tag; His tag (N); made in house; host or cells: E. coli BL21(DE3)
The series can be described thus: IC50 enzyme inhibition assay, nitrocefin reporter substrate. In kind it is biochemical. As for the experimental part: (§1) Enzyme (NDM-1, 5 nM; VIM-2, 500 pM; CTX-M-15, 500 pM; KPC-2, 5 nM; OXA-48, 1 nM; TEM-1, 100 pM; ACE, 50 nM) was mixed with 30 μM nitrocefin (100 μM nitrocefin for TEM-1; 250 µM furanacryloyl-L-phenylalanylglycylglycine [FAPGG] for ACE^24) after a 5-10 minute preincubation with AM-A. Metallo-enzymes were supplemented with 10 μM ZnSO4. Assays were read in 96-well microplate format at 490 nm using a Spectramax reader (Molecular Devices) at 30-37° C.
(§2) E. coli strain BW25113 was modified by deletion of the bamB and tolC genes so as to increase permeability to and reduce efflux of small molecules. This strain was then further modified by the single-copy chromosomal insertion of the blaNDM-1 gene under control of the pLac promoter. Microbial natural product extracts were screened against this strain in the presence of sublethal ¼ MIC meropenem. AM-A was purified from a hit extract and its structure elucidated by NMR, mass spectrometry and polarimetry. IC50 values for AM-A were determined using nitrocefin (for MBLs and Ser BLs) and furanacryloyl-L-phenylalanylglycylglycine (for ACE)^21 as reporter substrates against the following purified enzymes: MBLs IMP-7, VIM-2, and NDM-1; SBLs CTX-M-15, KPC-2, OXA-48, and TEM-1; as well as ACE from rabbit lung. IC50, reversibility, Zn^2+ restoration, and inactivation enzyme assays were performed in 50 mM HEPES pH 7.5 and measured using a SpectraMax reader (Molecular Devices). ICP-MS experiments were conducted using purified NDM-1 at 5 mg/mL and varying concentrations of AM-A with subsequent dilution and transfer by nebulization into a NexION 3000 ICP mass spectrometer (Perkin Elmer). FIC values were determined using standard methods^27. Various concentrations of AM-A were tested in combination with 2 mg/L meropenem against 200+MBL-expressing clinical isolates including Pseudomonas spp., Acinetobacter spp., and Enterobacteriaceae. A dose of 2×10^6 forming units (cfu) of Klebsiella pneumoniae N11-2218 was used for all organ bacterial load experiments and a dose of 5×10^7cfu for all survival experiments. For all experiments, mice were treated with compound 30 minutes post infection.

A further series concerns IMP-7. The series is described as above. The format is biochemical. As for the experimental part:
as §1, §2

The target in the next series is T2, KPC-2 (Klebsiella pneumoniae, UniProt Q9F663).
T2 construct: All β-lactamase overexpression constructs were generated without the leader peptide in a pET-28b plasmid containing a N-terminal His Tag; His tag (N); made in house
T2 sequence (Q9F663 25-293 limits assumed): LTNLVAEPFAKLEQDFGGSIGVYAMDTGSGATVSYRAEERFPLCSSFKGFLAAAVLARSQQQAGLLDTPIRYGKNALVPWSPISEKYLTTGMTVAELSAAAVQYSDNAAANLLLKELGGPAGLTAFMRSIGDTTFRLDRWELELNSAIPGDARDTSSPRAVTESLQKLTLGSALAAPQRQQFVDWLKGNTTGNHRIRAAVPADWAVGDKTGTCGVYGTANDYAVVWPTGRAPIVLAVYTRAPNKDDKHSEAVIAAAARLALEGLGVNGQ
Described as above. In kind it is biochemical. As for the experimental part: as §1, §2

Another series concerns the target T3, OXA-48 (Klebsiella pneumoniae, UniProt Q6XEC0).
T3 construct: All β-lactamase overexpression constructs were generated without the leader peptide in a pET-28b plasmid containing a N-terminal His Tag; His tag (N); made in house; host or cells: E. coli BL21(DE3)
The description is as above. The format is biochemical. As for the experimental part: as §1, §2

The target of another series is T4, TEM-1 (Escherichia coli, UniProt P62593).
T4 construct: All β-lactamase overexpression constructs were generated without the leader peptide in a pET-28b plasmid containing a N-terminal His Tag; His tag (N); made in house; host or cells: E. coli BL21(DE3)
T4 sequence (P62593 24-286 limits assumed): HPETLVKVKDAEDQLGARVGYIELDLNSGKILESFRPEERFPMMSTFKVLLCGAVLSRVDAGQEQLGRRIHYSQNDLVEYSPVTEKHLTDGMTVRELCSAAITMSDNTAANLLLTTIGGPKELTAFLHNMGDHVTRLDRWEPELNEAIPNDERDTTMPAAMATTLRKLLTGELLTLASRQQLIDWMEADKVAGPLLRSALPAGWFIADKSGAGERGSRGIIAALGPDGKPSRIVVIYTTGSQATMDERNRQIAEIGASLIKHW
Described as above. In kind it is biochemical. As for the experimental part: as §1, §2

The target in series [1] is T5, VIM-2 (Escherichia coli, UniProt Q5U7L7).
T5 construct: All β-lactamase overexpression constructs were generated without the leader peptide in a pET-28b plasmid containing a N-terminal His Tag; His tag (N); made in house; host or cells: E. coli BL21(DE3)
The description is as above. The format is biochemical. As for the experimental part:
as §1, §2

The target in series [2] is T5, VIM-2. The series can be described thus: Incubation of AM-A with metalloenzymes in Zn2+-depleted buffer. Particulars: extended incubation, AM-A 0.5 mM. In kind it is biochemical. As for the experimental part:
Enzyme (500 nM) was incubated with AM-A (500 μM) for 10 minutes. 20 μL of the above was diluted with 180 μL nitrocefin or FAPGG substrate for the following final concentrations: Enzyme (50 nM), FAPGG (50 μM)/nitrocefin (20 μM), AM-A (50 μM). Buffer (50 mM HEPES pH 7.5, 300 mM NaCl) was stirred overnight with 2 g/100 mL Chelex-100 (Biorad; Richmond, Calif.). Assays were read in 96-well microplate format at 490 nm using a Spectramax reader (Molecular Devices) at 37° C.

Series [3] addresses T5, VIM-2. The series can be described thus: Inactivation kinetics. In kind it is biochemical. As for the experimental part: NDM-1 (50 nM) was added to 20 μM nitrocefin containing AM-A in serial ½ dilutions from 8 μM. The assay was performed in 50 mM HEPES pH 7.5, 200 μL final volume. The assay was read in 96-well microplate format at 490 nm using a Spectramax reader (Molecular Devices) for 10 minutes at 37° C. VIM-2 (10 nM) was added to 20 μM nitrocefin containing AM-A in serial ½ dilutions from 16 μM. The assay was performed in 50 mM HEPES pH 7.5, 200 μL final volume. The assay was read in 96-well microplate format at 490 nm using a Spectramax reader (Molecular Devices) for 10 minutes at 37° C. as reported previously. For all assays experiments the offset between reaction initiation and the first read was ˜6s.
Rate constants characterizing the inactivation of enzyme were calculated based on the dependence of the pseudo-first order rate constant, ki, upon AM-A concentration according to the following model:
[formula] where E•Zn, A, E•Zn•A, and Zn•A are the active metalloenzyme, AM-A, the ternary metalloenzyme-AM-A complex, and AM-A-metal complex, respectively. Ki represents the dissociation constant of the ternary complex and k+2 is the rate constant for dissociation of ternary complex into inactivated enzyme (Einact) and AM-A-Zn complex. […]
[formula] […] The individual values of Ki and k+2 were determined by fitting the value of ki to equation 2 as described previously^25: […]

For the next series, the system named is Pseudomonas spp. The series can be described thus: Clinical isolate screening with meropenem. In kind it is cell-based, Pseudomonas aeruginosa. As for the experimental part:
Various concentrations of AM-A were chosen in combination with 2 mg/L of meropenem which is the EUCAST breakpoint for resistance^28. Synergistic properties of the two compounds were examined in a micro-titre tray using BHI as the growth medium (Oxford Science Park, England) and an inoculum of 0.5 MacFarland. All plates contained the control strains Escherichia coli ATCC 25922 and Pseudomonas aeruginosa ATCC 27853. Overall, 226 non-clonal clinical isolates (Enterobacteriaceae, P. aeruginosa and Acinetobacter spp.) were challenged containing one of the following MBLs: SPM-1 (n=17), AIM-1 (n=8), NDM-1 (n=67), VIM-type (n=114) or IMP-type (n=20). […] Plates were incubated at 37° C. and read after 18 hrs.

For series [4] the following is noted: rats, i.v.; cited from earlier work.

T3 sequence (Q6XEC0 23-265 limits assumed): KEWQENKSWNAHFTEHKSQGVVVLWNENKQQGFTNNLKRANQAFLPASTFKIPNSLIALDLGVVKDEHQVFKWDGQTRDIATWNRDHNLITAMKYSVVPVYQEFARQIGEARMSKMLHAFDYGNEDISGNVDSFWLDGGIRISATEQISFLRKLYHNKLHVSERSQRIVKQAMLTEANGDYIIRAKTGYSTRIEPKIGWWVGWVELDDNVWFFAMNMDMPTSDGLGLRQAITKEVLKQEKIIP
T1 sequence (Q9EXV5 entry or part of it): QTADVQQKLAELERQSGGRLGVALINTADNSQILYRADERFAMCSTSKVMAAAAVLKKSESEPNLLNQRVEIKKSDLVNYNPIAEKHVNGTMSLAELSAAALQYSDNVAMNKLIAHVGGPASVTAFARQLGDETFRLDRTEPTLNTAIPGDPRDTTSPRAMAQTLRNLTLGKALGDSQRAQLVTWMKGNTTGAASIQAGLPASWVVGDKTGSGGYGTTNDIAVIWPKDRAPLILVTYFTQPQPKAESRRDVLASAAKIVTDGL

As to `N[C@H](CN[C@H](CN[C@@H](CC(=O)O)C(=O)O)C(=O)O)C(=O)O` [AM-A, aspergillomarasmine A], the “effect on CTX-M-15” value on CTX-M-15 is listed as “no effect”. The “activity against IMP-7” value with IMP-7 is recorded as “weaker activity; also recorded: less potent inactivation”. Further, the “effect on KPC-2” value at KPC-2 was “no effect”. The “effect on activity of OXA-48” value at OXA-48 is recorded as “no effect; also recorded: unaffected”. Further, the “effect on TEM-1” value at TEM-1 was “no effect”. Also, on VIM-2 [1], the IC50 (as a rule, the concentration that gives 50% inhibition) came to 9.6 ± 2.4 µM and the “in vitro inhibition of VIM-2” value is “potent in vitro dose-dependent inhibition”. The “inactivation of VIM-2” value on VIM-2 [2] is “complete inactivation”. In addition, the Ki on VIM-2 [3] is 0.007 µM. For the same molecule, on VIM-2 [3] (time-dependent inactivation), the “k+2 (inactivation rate constant)” value stood at 0.0065 s⁻¹. Further, in the series on Pseudomonas spp., the “activity in Pseudomonas spp. (potentiation of meropenem)” value is on record as “active”. In addition, the 50% lethal dose (LD50) – broadly, the dose at which mortality reaches 50% – in series [4] is on record as 250 mg/kg.
